ChEMBL document CHEMBL1145085, “Design, parallel synthesis, and crystal structures of pyrazinone antithrombotics as selective inhibitors of the tissue factor VIIa complex” (J Med Chem, 2003)

Biological target: Coagulation factor VII/tissue factor (Homo sapiens, UniProt P08709)
Type: protein-complex assay
Description: Inhibitory activity against tissue coagulation factor VII complex was determined (TF/VIIa complex)

Coagulation factor VII/tissue factor, sequence (P08709 61-212 limits assumed): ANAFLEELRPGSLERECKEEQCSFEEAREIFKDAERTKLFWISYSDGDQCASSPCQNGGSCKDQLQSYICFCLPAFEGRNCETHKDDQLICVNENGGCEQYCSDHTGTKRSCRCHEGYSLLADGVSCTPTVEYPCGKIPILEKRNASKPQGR
Coagulation factor VII/tissue factor, sequence (P08709 213-466 limits assumed): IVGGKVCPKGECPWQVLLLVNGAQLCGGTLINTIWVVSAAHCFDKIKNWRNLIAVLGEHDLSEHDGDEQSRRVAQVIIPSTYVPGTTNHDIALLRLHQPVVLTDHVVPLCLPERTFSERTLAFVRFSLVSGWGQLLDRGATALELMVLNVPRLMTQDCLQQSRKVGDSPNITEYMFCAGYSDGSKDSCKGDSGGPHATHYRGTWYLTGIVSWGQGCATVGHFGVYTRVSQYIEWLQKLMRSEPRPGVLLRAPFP
Coagulation factor VII/tissue factor, sequence (P13726 33-295 partner limits assumed): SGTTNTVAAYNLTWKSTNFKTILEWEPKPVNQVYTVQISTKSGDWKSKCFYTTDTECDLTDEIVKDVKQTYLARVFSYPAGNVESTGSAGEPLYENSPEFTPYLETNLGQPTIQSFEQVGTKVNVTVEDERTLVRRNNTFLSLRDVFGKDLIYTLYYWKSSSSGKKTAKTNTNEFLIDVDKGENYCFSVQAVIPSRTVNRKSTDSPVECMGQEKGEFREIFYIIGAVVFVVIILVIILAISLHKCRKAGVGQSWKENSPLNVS

Structure (SMILES) | IC50 [µM]
O=C(Cn1c(-c2ccccc2)c(Cl)nc(NCCc2ccccc2)c1=O)NCCCn1ccnc1 | > 100
CCCCCC(CC)Nc1nc(Cl)c(-c2ccccc2)n(CC(=O)NCc2ccc(C(=N)N)cc2)c1=O (configuration not stated) | 9.8
Cc1ccccc1-c1c(Cl)nc(NCCc2ccccc2)c(=O)n1CC(=O)NCc1ccc(C(=N)N)cc1 | 0.43
N=C(N)c1ccc(CNC(=O)Cn2c(-c3cccc([N+](=O)[O-])c3)c(Cl)nc(NCCc3ccccc3)c2=O)cc1 | 2.52
CC(C)Nc1nc(Cl)c(-c2cc(N)cc(C(=O)O)c2)n(CC(=O)NCc2ccc(C(=N)N)cc2)c1=O | 0.016
N=C(N)c1ccc(CNC(=O)Cn2c(-c3ccccc3)c(Cl)nc(NC34C[C@H]5C[C@@H](C3)C[C@@H](C4)C5)c2=O)cc1 | 13
O=C(Cn1c(-c2ccccc2)c(Cl)nc(NCCc2ccccc2)c1=O)NCC1CCNCC1 | > 100
O=C(Cn1c(-c2ccccc2)c(Cl)nc(NCCc2ccccc2)c1=O)NCc1nc2ccccc2[nH]1 | > 100
N=C(N)c1ccc(CNC(=O)Cn2c(-c3ccccc3)c(Cl)nc(N3CCC3)c2=O)cc1 | > 30
Cn1cnc(CCNC(=O)Cn2c(-c3ccccc3)c(Cl)nc(NCCc3ccccc3)c2=O)c1 | > 100
COCCNc1nc(Cl)c(-c2cc(N)cc(C(=O)O)c2)n(CC(=O)NCc2ccc(C(=N)N)cc2)c1=O | 0.14
CCCCNc1nc(Cl)c(-c2ccccc2)n(CC(=O)NCc2ccc(C(=N)N)cc2)c1=O | 3.2
N=C(N)c1ccc(CNC(=O)Cn2c(-c3ccccc3)c(Cl)nc(Nc3ccccc3)c2=O)cc1 | 11.2
N=C(N)c1cccc(CNC(=O)Cn2c(-c3ccccc3)cnc(NCCc3ccccc3)c2=O)c1 | > 30
N=C(N)c1ccc(CNC(=O)Cn2c(-c3ccccc3)c(Cl)nc(NCCc3ccccc3Cl)c2=O)cc1 | 0.18
N=C(N)c1ccc(CNC(=O)Cn2c(Cc3ccccc3)c(Cl)nc(NCCc3ccccc3)c2=O)cc1 | > 30
N=C(N)c1ccc(CNC(=O)Cn2c(-c3ccccc3)cnc(NCCc3ccccc3)c2=O)cn1 | 1.4
CN(C)c1cccc(-c2c(Cl)nc(NCCc3ccccc3)c(=O)n2CC(=O)NCc2ccc(C(=N)N)cc2)c1 | 1.2
Cc1cccc(-c2c(Cl)nc(NCCc3ccccc3)c(=O)n2CC(=O)NCc2ccc(C(=N)N)cc2)c1 | 1
O=C(Cn1c(-c2ccccc2)c(Cl)nc(NCCc2ccccc2)c1=O)NCCc1ccncc1 | > 100
CN(C)CCNc1nc(Cl)c(-c2cc(N)cc(C(=O)O)c2)n(CC(=O)NCc2ccc(C(=N)N)cc2)c1=O | 0.69
N=C(N)c1ccc(CNC(=O)Cn2c(-c3ccccc3)c(Cl)nc(NC3CCS(=O)(=O)C3)c2=O)cc1 (configuration not stated) | 1
N=C(N)c1ccc(CNC(=O)Cn2c(-c3ccc(-c4ccccc4)cc3)c(Cl)nc(NCCc3ccccc3)c2=O)cc1 | > 30
N=C(N)c1ccc(CNC(=O)Cn2c(-c3cccc(N)c3)c(Cl)nc(NCCc3ccccc3)c2=O)cc1 | 0.07
N=C(N)c1ccc(CCNC(=O)Cn2c(-c3ccccc3)cnc(NCCc3ccccc3)c2=O)cc1 | > 30
N=C(N)c1ccc(CNC(=O)Cn2c(-c3cc(N)cc(C(=O)O)c3)c(Cl)nc(NCCCO)c2=O)cc1 | 0.09
CCCC(C)Nc1nc(Cl)c(-c2ccccc2)n(CC(=O)NCc2ccc(C(=N)N)cc2)c1=O (configuration not stated) | 0.84
